Data on one compound can be found in patent publication US10889834B2, “Methods and compositions for enhancing targeted transgene integration” (Sangamo BioSciences, Inc., priority 2014, dated 2021).

The assay relates to Hepa1-6 cells. Kind of assay: Factor IX production by ELISA in Hepa1-6 cells treated with topoisomerase inhibitor and FIX donor AAV (integration at albumin locus). It counts as cell-based, mouse. The conditions noted are these: 0.5-5 uM inhibitor, FIX measured at days 4 and 7. (In general: ELISA stands for enzyme-linked immunosorbent assay.)

Experimental: For instance, one-hundred thousand Hepa1-6 cells were seeded per well of a 24-well dish and grown until 70% confluent in DMEM+10% FBS. […] Cells were then transfected with one of two Factor IX (FIX)-containing adeno-associated viruses (AAVs) donors (e.g., AAV2/6 vectors at 6e10 vg per sample) and Factor IX production on days 0-4 (day 4) and days 5-7 (day 7) assayed by ELISA.
The FIX donor AAVs contain homology arms (complementary to the 3′ end of the mouse albumin gene) flanking an albumin 3′ intron splice acceptor-albumin 3′ exon-2A-Factor IX cassette. In one instance, the Factor IX cassette was positioned in the forward orientation (F), allowing Factor IX to be produced if the DNA was integrated into the Albumin locus through HDR by the use of the homology arms.
Therefore, we determined the stimulation of Factor IX integration/expression that is specific to integration at the albumin gene in the proper orientation; this number is roughly equal to the Factor IX produced from the forward-orientation virus minus the Factor IX produced by the reverse-orientation virus.

Take `CC[C@@]1(O)C(=O)OCc2c1cc1n(c2=O)Cc2cc3ccccc3nc2-1` [camptothecin]: the “FIX protein (forward-orientation AAV donor)” value (human FIX AAV donor in forward (F) orientation) is reported as “dose-dependent increase in FIX protein”. Moreover, the “FIX protein (reverse-orientation AAV donor)” value (human FIX AAV donor in reverse (R) orientation) is “generally not”.
